In the supplement of paper PMC10307832:

Legend:
Assay in all cases: relative viability (nuclei count vs DMSO), 5 days (fraction); higher = more cells survive
NCI-H2347 = tested on: NCI-H2347
In short: (§1)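 One day after seeding in 1536-well plates, lung cancer cell lines were dosed by pin tool. Dosing was either single-drug or a fixed anchor-drug dose plus five library-drug doses (not always all listed) in √10 steps. After 5 days, nuclei were stained in one fix-and-stain step and counted on 4× images, and relative viability is the nuclei count of treated wells over that of vehicle wells, given as the median of duplicate plates.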

NCI-H661 = tested on: NCI-H661
In short: as §1

NCI-H727 = tested on: NCI-H727
In short: as §1

NCI-H2126 = tested on: NCI-H2126
In short: as §1

NCI-H322M = tested on: NCI-H322M
In short: as §1

PC-14 = tested on: PC-14
In short: as §1

EMC-BAC-2 = tested on: EMC-BAC-2
In short: as §1

EPLC-272H = tested on: EPLC-272H
In short: as §1

NCI-H2023 = tested on: NCI-H2023
In short: as §1

NCI-H1993 = tested on: NCI-H1993
In short: as §1

SW 1573 = tested on: SW 1573
In short: as §1

NCI-H2085 = tested on: NCI-H2085
In short: as §1

NCI-H1563 = tested on: NCI-H1563
In short: as §1

LCLC-97TM1 = tested on: LCLC-97TM1
In short: as §1

NCI-H647 = tested on: NCI-H647
In short: as §1

NCI-H1734 = tested on: NCI-H1734
In short: as §1

NCI-H1915 = tested on: NCI-H1915
In short: as §1

NCI-H2009 = tested on: NCI-H2009
In short: as §1

LXF-289 = tested on: LXF-289
In short: as §1

HOP-62 = tested on: HOP-62
In short: as §1

H3255 = tested on: H3255
In short: as §1

SK-LU-1 = tested on: SK-LU-1
In short: as §1

Compound `COc1nc(C)cnc1NS(=O)(=O)c1cccnc1-c1ccc(-c2nnco2)cc1` [Zibotentan] + CS(=O)(=O)CCNCc1ccc(-c2ccc3ncnc(Nc4ccc(OCc5cccc(F)c5)c(Cl)c4)c3c2)o1 [Lapatinib] (partner 2 µM) has a relative viability (NCI-H2347; first compound 0.08 µM) of 1.05, a relative viability (NCI-H2347; first compound 0.253 µM) of 0.941 and a relative viability (NCI-H2347; first compound 0.8 µM) of 1.19. For the same compound, the relative viability (NCI-H2347; first compound 2.53 µM) was 0.943, the relative viability (NCI-H661; first compound 0.08 µM) was 0.453 and the relative viability (NCI-H661; first compound 0.253 µM) was 0.445. It also gave a relative viability (NCI-H661; first compound 0.8 µM) of 0.445, a relative viability (NCI-H661; first compound 2.53 µM) of 0.46 and a relative viability (NCI-H727; first compound 0.08 µM) of 0.879. It also gave a relative viability (NCI-H727; first compound 0.253 µM) of 0.739, a relative viability (NCI-H727; first compound 0.8 µM) of 0.781 and a relative viability (NCI-H727; first compound 2.53 µM) of 1.16. It also gave a relative viability (NCI-H2126; first compound 0.08 µM) of 0.79, a relative viability (NCI-H2126; first compound 0.253 µM) of 0.724 and a relative viability (NCI-H2126; first compound 0.8 µM) of 0.662. It also gave a relative viability (NCI-H2126; first compound 2.53 µM) of 0.779, a relative viability (NCI-H322M; first compound 0.08 µM) of 0.553 and a relative viability (NCI-H322M; first compound 0.253 µM) of 0.621. The relative viability (NCI-H322M; first compound 0.8 µM) was 0.582, the relative viability (NCI-H322M; first compound 2.53 µM) was 0.624 and the relative viability (PC-14; first compound 0.08 µM) was 0.322. It also gave a relative viability (PC-14; first compound 0.253 µM) of 0.314, a relative viability (PC-14; first compound 0.8 µM) of 0.344 and a relative viability (PC-14; first compound 2.53 µM) of 0.348. It also gave a relative viability (EMC-BAC-2; first compound 0.08 µM) of 0.958, a relative viability (EMC-BAC-2; first compound 0.253 µM) of 0.805 and a relative viability (EMC-BAC-2; first compound 0.8 µM) of 0.873. The relative viability (EMC-BAC-2; first compound 2.53 µM) was 0.858, the relative viability (EPLC-272H; first compound 0.08 µM) was 0.982 and the relative viability (EPLC-272H; first compound 0.253 µM) was 0.894. It also gave a relative viability (EPLC-272H; first compound 0.8 µM) of 0.919, a relative viability (EPLC-272H; first compound 2.53 µM) of 0.869 and a relative viability (NCI-H2023; first compound 0.08 µM) of 0.87. It also gave a relative viability (NCI-H2023; first compound 0.253 µM) of 0.4, a relative viability (NCI-H2023; first compound 0.8 µM) of 0.651 and a relative viability (NCI-H2023; first compound 2.53 µM) of 0.846. The relative viability (NCI-H1993; first compound 0.253 µM) was 0.792, the relative viability (NCI-H1993; first compound 0.8 µM) was 0.88 and the relative viability (NCI-H1993; first compound 2.53 µM) was 0.768. The relative viability (SW 1573; first compound 0.08 µM) was 1.18, the relative viability (SW 1573; first compound 0.253 µM) was 1.11 and the relative viability (SW 1573; first compound 0.8 µM) was 1.2. The relative viability (SW 1573; first compound 2.53 µM) was 1.14, the relative viability (NCI-H2085; first compound 0.08 µM) was 0.796 and the relative viability (NCI-H2085; first compound 0.253 µM) was 0.837. The relative viability (NCI-H2085; first compound 0.8 µM) was 0.764, the relative viability (NCI-H2085; first compound 2.53 µM) was 0.95 and the relative viability (NCI-H1563; first compound 0.08 µM) was 0.993. It also gave a relative viability (NCI-H1563; first compound 0.253 µM) of 0.535, a relative viability (NCI-H1563; first compound 0.8 µM) of 0.905 and a relative viability (NCI-H1563; first compound 2.53 µM) of 0.958. For the same compound, the relative viability (LCLC-97TM1; first compound 0.08 µM) was 1.01, the relative viability (LCLC-97TM1; first compound 0.253 µM) was 0.95 and the relative viability (LCLC-97TM1; first compound 0.8 µM) was 0.841. The relative viability (LCLC-97TM1; first compound 2.53 µM) was 0.93, the relative viability (NCI-H647; first compound 0.08 µM) was 1.23 and the relative viability (NCI-H647; first compound 0.253 µM) was 0.924. For the same compound, the relative viability (NCI-H647; first compound 0.8 µM) was 0.968, the relative viability (NCI-H647; first compound 2.53 µM) was 1.06 and the relative viability (NCI-H1734; first compound 0.08 µM) was 1.2. It also gave a relative viability (NCI-H1734; first compound 0.253 µM) of 1.04, a relative viability (NCI-H1734; first compound 0.8 µM) of 0.996 and a relative viability (NCI-H1734; first compound 2.53 µM) of 1.19. It also gave a relative viability (NCI-H1915; first compound 0.08 µM) of 1.03, a relative viability (NCI-H1915; first compound 0.253 µM) of 0.934 and a relative viability (NCI-H1915; first compound 0.8 µM) of 0.963. The relative viability (NCI-H1915; first compound 2.53 µM) was 1.03, the relative viability (NCI-H2009; first compound 0.08 µM) was 0.921 and the relative viability (NCI-H2009; first compound 0.253 µM) was 0.82. For the same compound, the relative viability (NCI-H2009; first compound 0.8 µM) was 1, the relative viability (NCI-H2009; first compound 2.53 µM) was 1.02 and the relative viability (LXF-289; first compound 0.08 µM) was 0.873. For the same compound, the relative viability (LXF-289; first compound 0.253 µM) was 0.886, the relative viability (LXF-289; first compound 0.8 µM) was 0.93 and the relative viability (LXF-289; first compound 2.53 µM) was 0.878. It also gave a relative viability (HOP-62; first compound 0.08 µM) of 0.957, a relative viability (HOP-62; first compound 0.253 µM) of 1.12 and a relative viability (HOP-62; first compound 0.8 µM) of 1.22. The relative viability (HOP-62; first compound 2.53 µM) was 1.25, the relative viability (H3255; first compound 0.08 µM) was 0.271 and the relative viability (H3255; first compound 0.253 µM) was 0.255. For the same compound, the relative viability (H3255; first compound 0.8 µM) was 0.281, the relative viability (H3255; first compound 2.53 µM) was 0.239 and the relative viability (SK-LU-1; first compound 0.08 µM) was 0.831. For the same compound, the relative viability (SK-LU-1; first compound 0.253 µM) was 0.766, the relative viability (SK-LU-1; first compound 0.8 µM) was 0.928 and the relative viability (SK-LU-1; first compound 2.53 µM) was 0.878.
